Holding throughout (assay): Kinase panel profiling at 1 µmol/L (MSA or IMAP), percentage inhibition
Type in all cases: biochemical

Assay [1] deals with T1, panel of 255 wild-type kinases (Homo sapiens, UniProt Q08881).
T1 sequence (Q08881 1-620): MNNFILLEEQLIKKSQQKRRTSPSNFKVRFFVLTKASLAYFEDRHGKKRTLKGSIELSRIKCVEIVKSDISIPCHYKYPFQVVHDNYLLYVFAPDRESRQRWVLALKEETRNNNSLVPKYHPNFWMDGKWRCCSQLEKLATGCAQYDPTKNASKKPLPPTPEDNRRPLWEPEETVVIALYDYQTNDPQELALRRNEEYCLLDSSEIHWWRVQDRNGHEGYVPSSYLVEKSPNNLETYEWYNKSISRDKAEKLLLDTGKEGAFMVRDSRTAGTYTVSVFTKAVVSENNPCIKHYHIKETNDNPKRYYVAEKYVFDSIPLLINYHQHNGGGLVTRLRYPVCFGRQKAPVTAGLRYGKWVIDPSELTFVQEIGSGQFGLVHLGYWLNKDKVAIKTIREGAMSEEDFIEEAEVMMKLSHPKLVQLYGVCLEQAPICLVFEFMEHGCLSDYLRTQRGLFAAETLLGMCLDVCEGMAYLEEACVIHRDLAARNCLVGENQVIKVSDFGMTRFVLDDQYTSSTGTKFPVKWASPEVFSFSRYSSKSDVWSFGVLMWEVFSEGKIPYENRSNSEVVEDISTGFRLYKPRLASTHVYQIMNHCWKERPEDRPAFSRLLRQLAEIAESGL
To be noted: kinase ITK; 1 µmol/L single concentration; read-out: %-inhibition at 1 µmol/L, ITK.

In assay [2] the target is panel of 255 wild-type kinases (Homo sapiens, UniProt P53355). To be noted: kinase DAPK1; 1 µmol/L single concentration; read-out: %-inhibition at 1 µmol/L, DAPK1.
The target of assay [3] is panel of 255 wild-type kinases (Homo sapiens, UniProt P16591). To be noted: kinase FER; 1 µmol/L single concentration; read-out: %-inhibition at 1 µmol/L, FER.
Assay [4] has as its target panel of 255 wild-type kinases (Homo sapiens, UniProt Q13153). To be noted: PAK1; 1 µmol/L single concentration; read-out: %-inhibition, PAK1.
Assay [5] has as its target panel of 255 wild-type kinases (Homo sapiens, UniProt P27361). The conditions noted are these: kinase Erk1; 1 µmol/L single concentration; read-out: %-inhibition at 1 µmol/L, Erk1.
Assay [6] relates to panel of 255 wild-type kinases. The conditions noted are these: 1 µmol/L single concentration; for %-inhibition at 1 µmol/L, FYN [isoform b]: kinase FYN [isoform b]; for %-inhibition at 1 µmol/L, LYNb: kinase LYNb; for %-inhibition at 1 µmol/L, PKCβ2: kinase PKCβ2; for %-inhibition at 1 µmol/L, SRM: kinase SRM.
The target of assay [7] is panel of 255 wild-type kinases (Homo sapiens, UniProt P24723). The conditions noted are these: kinase PKCη; 1 µmol/L single concentration; read-out: %-inhibition at 1 µmol/L, PKCη.
The target of assay [8] is panel of 255 wild-type kinases (Homo sapiens, UniProt P16234). To be noted: kinase PDGFRα; 1 µmol/L single concentration; read-out: %-inhibition at 1 µmol/L, PDGFRα.
The target in assay [9] is panel of 255 wild-type kinases (Homo sapiens, UniProt P12931). To be noted: kinase SRC; 1 µmol/L single concentration; read-out: %-inhibition at 1 µmol/L, SRC.
The target in assay [10] is panel of 255 wild-type kinases (Homo sapiens, UniProt O94804). The conditions noted are these: kinase LOK; 1 µmol/L single concentration; read-out: %-inhibition at 1 µmol/L, LOK.
Assay [11] deals with panel of 255 wild-type kinases (Homo sapiens, UniProt O75582). To be noted: MSK1; 1 µmol/L single concentration; read-out: %-inhibition, MSK1.
The target in assay [12] is panel of 255 wild-type kinases (Homo sapiens, UniProt Q9HC98). The conditions noted are these: NEK6; 1 µmol/L single concentration; read-out: %-inhibition, NEK6.
Assay [13] addresses T2, panel of 255 wild-type kinases (Homo sapiens, UniProt Q9BXA7).
T2 sequence (Q9BXA7 1-367): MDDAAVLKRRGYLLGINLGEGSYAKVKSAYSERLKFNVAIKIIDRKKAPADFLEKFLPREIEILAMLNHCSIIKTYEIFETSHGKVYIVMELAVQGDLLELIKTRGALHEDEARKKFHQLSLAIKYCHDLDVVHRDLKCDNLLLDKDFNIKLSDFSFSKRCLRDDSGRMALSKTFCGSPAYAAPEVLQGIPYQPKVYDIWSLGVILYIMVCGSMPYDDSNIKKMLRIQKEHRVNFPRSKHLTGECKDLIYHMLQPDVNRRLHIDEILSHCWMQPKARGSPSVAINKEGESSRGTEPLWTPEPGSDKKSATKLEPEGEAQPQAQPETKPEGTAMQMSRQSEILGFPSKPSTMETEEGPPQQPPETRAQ
To be noted: kinase TSSK1; 1 µmol/L single concentration; read-out: %-inhibition at 1 µmol/L, TSSK1.

In assay [14] the target is panel of 255 wild-type kinases (Homo sapiens, UniProt Q15759). The conditions noted are these: p38β; 1 µmol/L single concentration; read-out: %-inhibition, p38β.
Assay [15] concerns the target panel of 255 wild-type kinases (Homo sapiens, UniProt Q96RG2). The conditions noted are these: PASK; 1 µmol/L single concentration; read-out: %-inhibition, PASK.
The target of assay [16] is panel of 255 wild-type kinases (Homo sapiens, UniProt P27448). The conditions noted are these: MARK3; 1 µmol/L single concentration; read-out: %-inhibition, MARK3.
Assay [17] has as its target panel of 255 wild-type kinases (Homo sapiens, UniProt P28482). The conditions noted are these: kinase Erk2; 1 µmol/L single concentration; read-out: %-inhibition at 1 µmol/L, Erk2.
Assay [18] addresses panel of 255 wild-type kinases (Homo sapiens, UniProt P49760). The conditions noted are these: kinase CLK2; 1 µmol/L single concentration; read-out: %-inhibition at 1 µmol/L, CLK2.
The target in assay [19] is panel of 255 wild-type kinases (Homo sapiens, UniProt Q9Y6M4). The conditions noted are these: kinase CK1γ3; 1 µmol/L single concentration; read-out: %-inhibition at 1 µmol/L, CK1γ3.

Structures are written as SMILES.

On to `Cc1nc(NC(=O)N2CCC[C@H]2C(N)=O)sc1-c1ccnc(C(C)(C)C(F)(F)F)c1` [alpelisib], for which the inhibition at 1 µM in assay [1] is 9%; in [2], -3%; in assay [3], -1.86%; in assay [4] it was -3.29%; in [5], -0.813%; in assay [7] it was 1.42%. In addition, the inhibition at 1 µM is 0.405% in [8]; 3.29% in assay [9]; -7% in assay [10]; -8% in assay [11]; 0.343% in assay [12]; -5% in [13]. Further, the inhibition at 1 µM in assay [14] is 1%; in assay [15] it was -2%; in assay [16], 11%; in [17], -0.753%; in assay [18], 85%; in [19], -2%. Further, in [6], the “%-inhibition at 1 µmol/L, FYN [isoform b]” value (“%-inhibition … [isoform b]” for short) was -5.63%. Moreover, the “%-inhibition at 1 µmol/L, LYNb” value in [6] stood at 4.67%. For the same compound, in [6], the “%-inhibition at 1 µmol/L, PKCβ2” value stood at 2.32%. Moreover, the “%-inhibition at 1 µmol/L, SRM” value in assay [6] was 1%.
As to `Cn1cc(-c2cc3c(N4CCN(c5ncc([C@@](C)(N)c6ccc(F)cc6)cn5)CC4)ncnn3c2)cn1` [avapritinib], the inhibition at 1 µM in assay [1] was 19%; in [2], 0.0958%; in assay [3], 1.71%; in assay [4], 0.845%; in assay [5], -1.84%; in [7] it was -5%. The inhibition at 1 µM in assay [9] is 66%; in [10] it was 54%; in [11] it was 2.36%; in assay [12], -1.13%; in assay [13] it was 2.83%; in assay [14] it was -2.41%. In addition, the inhibition at 1 µM in [15] was 13%; in assay [16], -6%; in assay [17] it was 5%; in assay [18], 11%; in [19] it was 10%. In addition, in assay [6], the “%-inhibition … [isoform b]” value turned out to be 3%. Further, in assay [6], the “%-inhibition at 1 µmol/L, LYNb” value came to 83%. In addition, in assay [6], the “%-inhibition at 1 µmol/L, PKCβ2” value was -0.278%. The “%-inhibition at 1 µmol/L, SRM” value in [6] is 0.441%.
With `C[C@H]1Oc2cc(cnc2N)-c2c(nn(C)c2C#N)CN(C)C(=O)c2ccc(F)cc21` [lorlatinib], the inhibition at 1 µM was 14% in [1]; 6.55% in [2]; -2.12% in assay [4]; 3% in assay [5]; 0.817% in [7]; 1.74% in assay [8]. Further, the inhibition at 1 µM in [9] was 28%; in assay [10] it was 87%; in [11], -8%; in assay [12], -0.382%; in assay [13], 84%; in [14], 1.15%. The inhibition at 1 µM is 0.792% in [15]; 26% in assay [16]; 0.392% in assay [17]; 2.49% in [18]; -1% in assay [19]. Moreover, the “%-inhibition … [isoform b]” value in assay [6] is on record as 4%. Moreover, in assay [6], the “%-inhibition at 1 µmol/L, LYNb” value came out at 22%. Besides, the “%-inhibition at 1 µmol/L, PKCβ2” value in assay [6] is 4%. The “%-inhibition at 1 µmol/L, SRM” value in assay [6] amounted to 59%.
For the compound `CCn1c(=O)c(-c2cc(NC(=O)Nc3ccccc3)c(F)cc2Br)cc2cnc(NC)cc21` [ripretinib], the inhibition at 1 µM in assay [1] is 1.24%; in assay [2], -10%; in assay [3], 32%; in assay [4] it was 0.719%; in assay [5] it was 2.79%; in assay [7] it was 0.077%. Also, the inhibition at 1 µM in assay [9] was 71%; in assay [10], 53%; in [11], 14%; in assay [12], -4%; in [13], -4.3%; in assay [14], 88%. Besides, the inhibition at 1 µM in assay [15] is -1%; in assay [16], 1.78%; in [17], -2.43%; in assay [18], -4%; in assay [19] it was -8%. Also, the “%-inhibition … [isoform b]” value in [6] turned out to be 33%. Also, the “%-inhibition at 1 µmol/L, LYNb” value in assay [6] is on record as 85%. Further, the “%-inhibition at 1 µmol/L, PKCβ2” value in [6] was -0.488%. For the same compound, the “%-inhibition at 1 µmol/L, SRM” value in assay [6] is 32%.
`C=CC(=O)N1CCC([C@@H]2CCNc3c(C(N)=O)c(-c4ccc(Oc5ccccc5)cc4)nn32)CC1` [zanubrutinib]: the inhibition at 1 µM in assay [1] is 34%; in [2], -2%; in assay [3], 0.0146%; in assay [4], -2.56%; in assay [5], -9%; in assay [7], 4.22%. The inhibition at 1 µM was 11% in assay [8]; 5% in [10]; 0.565% in [11]; -1% in assay [12]; 2.13% in assay [13]; 4.54% in assay [14]. In addition, the inhibition at 1 µM in assay [15] is -2.55%; in [16], -1.28%; in [17] it was -5%; in [18] it was 7.62%; in assay [19] it was -0.464%. The “%-inhibition … [isoform b]” value in assay [6] is 22%. In [6], the “%-inhibition at 1 µmol/L, LYNb” value was 55%. Further, the “%-inhibition at 1 µmol/L, PKCβ2” value in [6] is recorded as -1.66%. Moreover, the “%-inhibition at 1 µmol/L, SRM” value in assay [6] is reported as 58%.

(Values after article PMC9516332 (Frontiers in Oncology, 2022).)
